Test results taken from patent US20210283089A1, “Use of fumaric acid esters and pharmaceutically acceptable salts thereof in preparing pharmaceuticals for treating ferroptosis-related diseases” (XIANGYA HOSPITAL CENTRAL SOUTH UNIVERSITY, priority 2018, published 2021).
Structures can show the parent of a compound that is named as a salt.

Key:
HepG2 and LO2 cells = assay: Determination test of cell membrane lipid peroxidation level (MDA detection kit); type: cell-based, Human; conditions: 6 h; for cell membrane lipid peroxidation level (stimulus alone): 80 mM ethanol or 10 μM DOX alone
Description: Human hepatocytes HepG2 and LO2 cells are obtained from the cell bank of Xiangya Hospital. The medium is DMEM medium (HyClone, SH30022.01) and RPMI medium (HyClone, SH30809.01) containing 10% fetal bovine serum (Gibco, 10091148) and 100 U/mL ampicillin+streptomycin double-antibody (Gibco, 10378016). The cell incubator conditions are 37° C., constant temperature and humidity, and constant carbon dioxide concentration of 5%. DMSO, 1 μM of Erastin, 80 mM of ethanol, 10 μM of DOX, 10 μM DOX+10 μM dimethyl fumarate, 10 μM DOX+10 μM monomethyl fumarate, 10 μM DOX+1 μM Ferrostatin-1, 80 mM ethanol+10 μM dimethyl fumarate, 80 mM ethanol+10 μM monomethyl fumarate, and 80 mM ethanol+1 μM Ferrostatin-1 are respectively added to monolayer adherent hepatocytes HepG2 and LO2 cells. After being incubated for 6 h, the cells are gently rinsed with PBS buffer pre-cooled at 4° C. for 3 times, and every 1 million cells are homogenized with 0.1 mL of IP lysate (Beyotime, […]), and supernatant is collected after centrifugation at 4° C. The cell membrane lipid peroxidation level is measured by MDA detection kit (Beyotime, […]), specific operations are performed according to the instructions, and the test is repeated for three times.

[1] = tested on: GPX4 protein level of HepG2 and LO2 cells; assay: Western Blot test 2: GPX4 protein level, DOX stimulation; type: cell-based, Human; conditions: 6 h
Description: The medium is DMEM medium (HyClone, SH30022.01) and RPMI medium (HyClone, SH30809.01) containing 10% fetal bovine serum (Gibco, 10091148) and 100 U/mL ampicillin+streptomycin double-antibody (Gibco, 10378016). The cell incubator conditions are 37° C., constant temperature and humidity, and constant carbon dioxide concentration of 5%. 10 μM of DOX, 10 μM DOX+10 μM dimethyl fumarate, 10 μM DOX+10 μM monomethyl fumarate, and 10 μM DOX+1 μM Ferrostatin-1 are respectively added to monolayer adherent hepatocytes HepG2 and LO2 cells. After being incubated for 6 h, the cells are gently rinsed with PBS buffer pre-cooled at 4° C. for 3 times, and then a total protein of the cells is extracted with RIPA lysate (Beyotime, P0013B). Specific operations are performed according to the instructions. After the concentration of the extracted protein is determined by BCA protein concentration determination kit (Beyotime, [MUT]), it is stored at -20° C. for later use. Each histone sample and 2×Loading Buffer are prepared at a volume ratio of 1:1, and placed in a metal bath at 100° C. to boil and denature for 10 min, then placed on ice to cool for 5 min, and a sample is waited to be loaded. Specific operations are performed according to the instructions. The test is repeated for three times.

HepG2 cells = assay: GSH and GSSG level determination test; type: cell-based, Human; conditions: 10 μM and 30 μM, incubated 20 h; concentration-dependent
Description: Human hepatocytes HepG2 and LO2 cells are obtained from the cell bank of Xiangya Hospital. The medium is DMEM medium (HyClone, SH30022.01) and RPMI medium (HyClone, SH30809.01) containing 10% fetal bovine serum (Gibco, 10091148) and 100 U/mL ampicillin+streptomycin double-antibody (Gibco, 10378016). The cell incubator conditions are 37° C., constant temperature and humidity, and constant carbon dioxide concentration of 5%. Monolayer adherent HepG2 cells are digested with a trypsin into single-cell suspension, and the cells are plated on a 96-well plate at 4000 cells/well. After the cells are adhered for 4-6 h, DMSO, 10 μM of dimethyl fumarate, 30 μM of dimethyl fumarate, 10 μM of monomethyl fumarate and 30 μM of monomethyl fumarate are respectively added to the cell culture plate, and incubated for 20 h, GSH/GSSG-Glo™ Assay Kit (Promega, V6611) is used to detect the total GSH and GSSH of the cells. Specific operations are performed according to the instructions, and the experiment is repeated for three times.

[2] = tested on: GPX4 protein level of HepG2 and LO2 cells; assay: Western Blot test 1: GPX4 protein level, ethanol stimulation; type: cell-based, Human; conditions: 6 h
Description: Human hepatocytes HepG2 and LO2 cells are obtained from the cell bank of Xiangya Hospital. The medium is DMEM medium (HyClone, SH30022.01) and RPMI medium (HyClone, SH30809.01) containing 10% fetal bovine serum (Gibco, 10091148) and 100 U/mL ampicillin+streptomycin double-antibody (Gibco, 10378016). The cell incubator conditions are 37° C., constant temperature and humidity, and constant carbon dioxide concentration of 5%. […] After being incubated for 6 h, the cells are gently rinsed with PBS buffer pre-cooled at 4° C. for 3 times, and then extracted for total protein of the cells with RI PA lysate (Beyotime, P0013B). Specific operations are performed according to the instructions. After the concentration of the extracted protein is determined by BCA protein concentration determination kit (Beyotime, [MUT]), it is stored at -20° C. for later use. Each group of protein sample and 2×Loading Buffer is prepared at a volume ratio of 1:1, and placed in a metal bath at 100° C. to boil and denature for 10 min, then placed on ice to cool for 5 min, and a sample is waited to be loaded. Specific operations are performed according to the instructions. The test is repeated for three times.

[3] = tested on: mouse liver of alcoholic fatty liver disease model; assay: Inhibition test of ferroptosis in mouse liver of alcoholic fatty liver disease model; type: in vivo, C57BL/6 male mice; conditions: 100 mg/Kg or 200 mg/Kg, intragastric, once a day, 10 consecutive days; versus model group
Description: 24 8-week-old SPF-grade C57BL/6 male mice are randomly divided into 4 groups, namely a blank group, a model group, a model+low-dose dimethyl fumarate (100 mg/Kg) group and a model+high-dose dimethyl fumarate (200 mg/Kg) group. The mice are let free to drink Lieber-DeCarli control diet for 5 days to gradually adapt to liquid diet and tube feeding. Subsequently, the model group is allowed to drink freely with 5% (volume/volume) standard Lieber-DeCarli alcohol liquid diet for 10 days, while the control group uses isocaloric control diet. From the 11-th day, the model+administration group is respectively administrated with dimethyl fumarate (100 mg/Kg) and dimethyl fumarate (200 mg/Kg) by intragastric administration once a day for 10 consecutive days. After that, the mice are anesthetized with 5% chloral hydrate in abdominal cavity, and liver tissues are collected, partly fixed in 10% formalin, and partly stored in liquid nitrogen. Then the following tests are separately performed (the dimethyl fumarate in the drawings of the description is represented by DMF):
(§1) A specific method is as follows: a mouse liver tissue sample fixed in 10% formalin is dehydrated, paraffin-immersed and embedded, and the paraffin-embedded tissue is sectioned. […]
(§2) A specific method is as follows: the paraffin-embedded tissue sections are baked in a constant temperature oven at 65° C. for 60 min to dissolve the paraffin, and then sequentially put in xylene to dewax and be transparent, and hydrated in ethanol solution with the concentrations from high to low. After the tissue sections are rinsed with PBS solution, a reagent A in a ready-to-use immunohistochemical hypersensitive UltraSensitive™ SP kit (Maixin Biotech Company, KIT-9707) is respectively added dropwise to remove an endogenous peroxidase from the tissues, and a reagent B is blocked by goat serum. […]

[4] = tested on: mouse liver of hepatic fibrosis model; assay: Inhibition test of ferroptosis in mouse liver of hepatic fibrosis model; type: in vivo, SD mice; conditions: 15 mg/Kg or 25 mg/Kg, intragastric, once a day, 8 weeks; versus model group
Description: 36 7-week-old SPF-grade SD mice of 200-250 g are randomly divided into 4 groups, namely a control group, a model group, a model+low-dose dimethyl fumarate (15 mg/Kg) group and a model+high-dose dimethyl fumarate (25 mg/Kg) group. In the model group, subcutaneous injection of 0.3 ml/100 g of 40% CCI4 peanut oil solution is used for modeling twice a week. It is started from the second week, 10% alcohol is used as the only beverage, the mice are fed with a corn meal feed mixed with 0.5% cholesterol, and modeling is continuously performed for 8 weeks. At the same time of modeling, the model+administration group are respectively given with dimethyl fumarate (15 mg/Kg) and dimethyl fumarate (25 mg/Kg) once a day by intragastric administration for 8 consecutive weeks. After that, the mice are anesthetized with 5% chloral hydrate in abdominal cavity, and the liver tissues are collected, partly fixed in formalin, and partly stored in liquid nitrogen. Then the following tests are separately performed (the dimethyl fumarate in the drawings of the description is represented by DMF):
as §1, §2

[5] = 10 μM DOX + 10 μM test substance
[6] = 80 mM ethanol + 10 μM test substance

Row | SMILES | cell membrane lipid peroxidation level (stimulus alone) (HepG2 and LO2 cells) | GPX4 protein level (DOX alone) ([1]; 10 μM DOX) | GSH level of the HepG2 cells (HepG2 cells) | GSSH level of the HepG2 cells (HepG2 cells) | cell membrane lipid peroxidation level caused by DOX (HepG2 and LO2 cells; [5]) | cell membrane lipid peroxidation level caused by ethanol (HepG2 and LO2 cells; [6]) | GPX4 protein level of ethanol-stimulated cells [2, 6] | GPX4 protein level of DOX-stimulated cells [1, 5] | fatty degeneration of the hepatocytes and pericentral periphlebitis (H&E staining) [3] | liver 4-HNE protein level (immunohistochemistry) [3] | liver GPX4 protein level (immunohistochemistry, Western blot) [3] | liver 4-HNE protein level (immunohistochemistry) [4] | liver GPX4 protein level (immunohistochemistry) [4] | liver pathological changes (fatty degeneration, necrosis, periportal inflammation, fibrosis; H&E and Sirius Red staining) [4] | GPX4 protein level (ethanol alone) ([2]; 80 mM ethanol)
1 | COc1cccc2c1C(=O)c1c(O)c3c(c(O)c1C2=O)C[C@@](O)(C(=O)CO)C[C@@H]3O[C@H]1C[C@H](N)[C@H](O)[C@H](C)O1 [DOX, doxorubicin] | significantly up-regulate | significantly down-regulate |  |  |  |  |  |  |  |  |  |  |  |  | 
2 | COC(=O)/C=C/C(=O)OC [dimethyl fumarate, Dimethyl fumarate] |  |  | significantly up-regulate | significantly up-regulate | significantly inhibit | significantly inhibit | significantly up-regulate | significantly up-regulate | significantly reduced | significantly down-regulated | significantly up-regulated | significantly down-regulated | significantly up-regulated | significantly reduced | 
3 | CCO [ethanol] | significantly up-regulate |  |  |  |  |  |  |  |  |  |  |  |  |  | significantly down-regulate
